{"source": "the supplement of paper PMC10307832", "assay_in_all_cases": "relative viability (nuclei count vs DMSO), 5 days (fraction); higher = more cells survive", "key": {"NCI-H2085": {"test_system": "NCI-H2085", "how_it_was_run": "(§1)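 A single step with final 0.05% Triton X-100, 1% formaldehyde and 1 ug/ml Hoechst fixed the cells and stained nuclei 5 days after treatment. Lung cancer cell lines in 1536-well plates had been treated by pin tool the day after seeding with one drug alone or a fixed anchor-drug dose plus five library-drug doses (not always all listed) in √10 steps, and nuclei were counted on 4× images. Relative viability is the ratio of nuclei in treated wells to nuclei in vehicle wells, taken as the median of duplicate plates.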"}, "SK-MES-1": {"test_system": "SK-MES-1", "how_it_was_run": "as §1"}, "HCC-44": {"test_system": "HCC-44", "how_it_was_run": "as §1"}, "NCI-H520": {"test_system": "NCI-H520", "how_it_was_run": "as §1"}, "NCI-H1993": {"test_system": "NCI-H1993", "how_it_was_run": "as §1"}, "NCI-H1793": {"test_system": "NCI-H1793", "how_it_was_run": "as §1"}, "NCI-H650": {"test_system": "NCI-H650", "how_it_was_run": "as §1"}, "EMC-BAC-2": {"test_system": "EMC-BAC-2", "how_it_was_run": "as §1"}, "NCI-H1563": {"test_system": "NCI-H1563", "how_it_was_run": "as §1"}, "NCI-H1651": {"test_system": "NCI-H1651", "how_it_was_run": "as §1"}, "NCI-H322M": {"test_system": "NCI-H322M", "how_it_was_run": "as §1"}, "ChaGo-K-1": {"test_system": "ChaGo-K-1", "how_it_was_run": "as §1"}}, "data": [{"molecule": "Clc1ccc(Nc2nnc(Cc3ccncc3)c3ccccc23)cc1", "note": "[Vatalanib] + CCNC(=O)c1noc(-c2cc(C(C)C)c(O)cc2O)c1-c1ccc(CN2CCOCC2)cc1 [Luminespib] (partner 0.01 µM)", "values": [{"measurement": "relative viability", "setting": "NCI-H2085; first compound 0.04 µM", "result": 0.474}, {"measurement": "relative viability", "setting": "NCI-H2085; first compound 0.1265 µM", "result": 0.529}, {"measurement": "relative viability", "setting": "NCI-H2085; first compound 0.4 µM", "result": 0.464}, {"measurement": "relative viability", "setting": "NCI-H2085; first compound 1.265 µM", "result": 0.609}, {"measurement": "relative viability", "setting": "NCI-H2085; first compound 4 µM", "result": 0.469}, {"measurement": "relative viability", "setting": "SK-MES-1; first compound 0.04 µM", "result": 0.745}, {"measurement": "relative viability", "setting": "SK-MES-1; first compound 0.1265 µM", "result": 0.845}, {"measurement": "relative viability", "setting": "SK-MES-1; first compound 0.4 µM", "result": 1.05}, {"measurement": "relative viability", "setting": "SK-MES-1; first compound 1.265 µM", "result": 0.679}, {"measurement": "relative viability", "setting": "SK-MES-1; first compound 4 µM", "result": 0.6}, {"measurement": "relative viability", "setting": "HCC-44; first compound 0.04 µM", "result": 1.24}, {"measurement": "relative viability", "setting": "HCC-44; first compound 0.1265 µM", "result": 1.01}, {"measurement": "relative viability", "setting": "HCC-44; first compound 0.4 µM", "result": 0.953}, {"measurement": "relative viability", "setting": "HCC-44; first compound 1.265 µM", "result": 0.927}, {"measurement": "relative viability", "setting": "HCC-44; first compound 4 µM", "result": 1.05}, {"measurement": "relative viability", "setting": "NCI-H520; first compound 0.04 µM", "result": 0.199}, {"measurement": "relative viability", "setting": "NCI-H520; first compound 0.1265 µM", "result": 0.19}, {"measurement": "relative viability", "setting": "NCI-H520; first compound 0.4 µM", "result": 0.22}, {"measurement": "relative viability", "setting": "NCI-H520; first compound 1.265 µM", "result": 0.221}, {"measurement": "relative viability", "setting": "NCI-H520; first compound 4 µM", "result": 0.246}, {"measurement": "relative viability", "setting": "NCI-H1993; first compound 0.04 µM", "result": 0.955}, {"measurement": "relative viability", "setting": "NCI-H1993; first compound 0.1265 µM", "result": 0.958}, {"measurement": "relative viability", "setting": "NCI-H1993; first compound 0.4 µM", "result": 0.865}, {"measurement": "relative viability", "setting": "NCI-H1993; first compound 1.265 µM", "result": 0.71}, {"measurement": "relative viability", "setting": "NCI-H1993; first compound 4 µM", "result": 0.82}, {"measurement": "relative viability", "setting": "NCI-H1793; first compound 0.04 µM", "result": 0.156}, {"measurement": "relative viability", "setting": "NCI-H1793; first compound 0.1265 µM", "result": 0.19}, {"measurement": "relative viability", "setting": "NCI-H1793; first compound 0.4 µM", "result": 0.192}, {"measurement": "relative viability", "setting": "NCI-H1793; first compound 1.265 µM", "result": 0.166}, {"measurement": "relative viability", "setting": "NCI-H1793; first compound 4 µM", "result": 0.2}, {"measurement": "relative viability", "setting": "NCI-H650; first compound 0.04 µM", "result": 0.821}, {"measurement": "relative viability", "setting": "NCI-H650; first compound 0.1265 µM", "result": 0.628}, {"measurement": "relative viability", "setting": "NCI-H650; first compound 1.265 µM", "result": 0.736}, {"measurement": "relative viability", "setting": "NCI-H650; first compound 4 µM", "result": 0.781}, {"measurement": "relative viability", "setting": "EMC-BAC-2; first compound 0.04 µM", "result": 1.16}, {"measurement": "relative viability", "setting": "EMC-BAC-2; first compound 0.1265 µM", "result": 1.13}, {"measurement": "relative viability", "setting": "EMC-BAC-2; first compound 0.4 µM", "result": 1.34}, {"measurement": "relative viability", "setting": "EMC-BAC-2; first compound 1.265 µM", "result": 1.09}, {"measurement": "relative viability", "setting": "EMC-BAC-2; first compound 4 µM", "result": 1.15}, {"measurement": "relative viability", "setting": "NCI-H1563; first compound 0.04 µM", "result": 0.493}, {"measurement": "relative viability", "setting": "NCI-H1563; first compound 0.1265 µM", "result": 0.539}, {"measurement": "relative viability", "setting": "NCI-H1563; first compound 0.4 µM", "result": 0.519}, {"measurement": "relative viability", "setting": "NCI-H1563; first compound 1.265 µM", "result": 0.495}, {"measurement": "relative viability", "setting": "NCI-H1563; first compound 4 µM", "result": 0.56}, {"measurement": "relative viability", "setting": "NCI-H1651; first compound 0.04 µM", "result": 0.852}, {"measurement": "relative viability", "setting": "NCI-H1651; first compound 0.1265 µM", "result": 0.891}, {"measurement": "relative viability", "setting": "NCI-H1651; first compound 0.4 µM", "result": 0.878}, {"measurement": "relative viability", "setting": "NCI-H1651; first compound 1.265 µM", "result": 0.869}, {"measurement": "relative viability", "setting": "NCI-H1651; first compound 4 µM", "result": 0.915}, {"measurement": "relative viability", "setting": "NCI-H322M; first compound 0.04 µM", "result": 0.849}, {"measurement": "relative viability", "setting": "NCI-H322M; first compound 0.1265 µM", "result": 0.798}, {"measurement": "relative viability", "setting": "NCI-H322M; first compound 0.4 µM", "result": 0.877}, {"measurement": "relative viability", "setting": "NCI-H322M; first compound 1.265 µM", "result": 0.793}, {"measurement": "relative viability", "setting": "NCI-H322M; first compound 4 µM", "result": 0.909}, {"measurement": "relative viability", "setting": "ChaGo-K-1; first compound 0.04 µM", "result": 0.636}, {"measurement": "relative viability", "setting": "ChaGo-K-1; first compound 0.1265 µM", "result": 0.608}, {"measurement": "relative viability", "setting": "ChaGo-K-1; first compound 0.4 µM", "result": 0.671}, {"measurement": "relative viability", "setting": "ChaGo-K-1; first compound 1.265 µM", "result": 0.471}, {"measurement": "relative viability", "setting": "ChaGo-K-1; first compound 4 µM", "result": 0.45}]}]}
